According to patent US11208412B2 (DAEGU-GYEONGBUK MEDICAL INNOVATION FOUNDATION, priority 2017, dated 2021):

Columns and labels:
Assay in all cases: Kinase selectivity, DiscoverX scanMAX Kinase assay panel (% control)
Format in all cases: binding
[1] = biological target: T1, kinases of the scanMAX Kinase assay panel (Homo sapiens, UniProt P06239); conditions: LCK; 1 uM
T1 construct: purchased DiscoverX Co. (contract measurement) scanMAX Kinase assay panel
Procedure, shortened: (§1)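 Read-out is % control, normalised so a positive-control compound sits at 0% and DMSO at 100%: (test − positive)/(negative − positive)×100. Each kinase received the compound at 1 uM in DMSO. A value below 35% counts as activity.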

[2] = biological target: T2, kinases of the scanMAX Kinase assay panel (Homo sapiens, UniProt P09619); conditions: PDGFRB; 1 uM
T2 construct: purchased DiscoverX Co. (contract measurement) scanMAX Kinase assay panel
Procedure, shortened: as §1

[3] = biological target: T3, kinases of the scanMAX Kinase assay panel (Homo sapiens, UniProt P50750); conditions: CDK9; 1 uM
T3 construct: purchased DiscoverX Co. (contract measurement) scanMAX Kinase assay panel
Procedure, shortened: as §1

[4] = biological target: T4, kinases of the scanMAX Kinase assay panel (Homo sapiens, UniProt P52564); conditions: MEK6; 1 uM
T4 construct: purchased DiscoverX Co. (contract measurement) scanMAX Kinase assay panel
T4 sequence (P52564 1-334): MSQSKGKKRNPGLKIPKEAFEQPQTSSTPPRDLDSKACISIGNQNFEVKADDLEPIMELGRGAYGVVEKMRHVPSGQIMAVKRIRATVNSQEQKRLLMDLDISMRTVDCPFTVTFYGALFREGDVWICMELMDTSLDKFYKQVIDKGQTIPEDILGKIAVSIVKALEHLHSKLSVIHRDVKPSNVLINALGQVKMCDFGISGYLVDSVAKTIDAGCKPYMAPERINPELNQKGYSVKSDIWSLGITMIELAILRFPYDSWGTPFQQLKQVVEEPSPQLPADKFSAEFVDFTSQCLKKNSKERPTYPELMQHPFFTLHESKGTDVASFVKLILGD
Procedure, shortened: as §1

[5] = biological target: T5, kinases of the scanMAX Kinase assay panel (Homo sapiens, UniProt P53350); conditions: PLK1; 1 uM
T5 construct: purchased DiscoverX Co. (contract measurement) scanMAX Kinase assay panel
Procedure, shortened: as §1

[6] = biological target: T6, kinases of the scanMAX Kinase assay panel (Homo sapiens, UniProt P53779); conditions: JNK3; 1 uM
T6 construct: purchased DiscoverX Co. (contract measurement) scanMAX Kinase assay panel
Procedure, shortened: as §1

[7] = biological target: T7, kinases of the scanMAX Kinase assay panel (Homo sapiens, UniProt Q00535); conditions: CDK5; 1 uM
T7 construct: purchased DiscoverX Co. (contract measurement) scanMAX Kinase assay panel
Procedure, shortened: as §1

[8] = biological target: T8, kinases of the scanMAX Kinase assay panel (Homo sapiens, UniProt Q02156); conditions: PRKCE; 1 uM
T8 construct: purchased DiscoverX Co. (contract measurement) scanMAX Kinase assay panel
T8 sequence (Q02156 1-737): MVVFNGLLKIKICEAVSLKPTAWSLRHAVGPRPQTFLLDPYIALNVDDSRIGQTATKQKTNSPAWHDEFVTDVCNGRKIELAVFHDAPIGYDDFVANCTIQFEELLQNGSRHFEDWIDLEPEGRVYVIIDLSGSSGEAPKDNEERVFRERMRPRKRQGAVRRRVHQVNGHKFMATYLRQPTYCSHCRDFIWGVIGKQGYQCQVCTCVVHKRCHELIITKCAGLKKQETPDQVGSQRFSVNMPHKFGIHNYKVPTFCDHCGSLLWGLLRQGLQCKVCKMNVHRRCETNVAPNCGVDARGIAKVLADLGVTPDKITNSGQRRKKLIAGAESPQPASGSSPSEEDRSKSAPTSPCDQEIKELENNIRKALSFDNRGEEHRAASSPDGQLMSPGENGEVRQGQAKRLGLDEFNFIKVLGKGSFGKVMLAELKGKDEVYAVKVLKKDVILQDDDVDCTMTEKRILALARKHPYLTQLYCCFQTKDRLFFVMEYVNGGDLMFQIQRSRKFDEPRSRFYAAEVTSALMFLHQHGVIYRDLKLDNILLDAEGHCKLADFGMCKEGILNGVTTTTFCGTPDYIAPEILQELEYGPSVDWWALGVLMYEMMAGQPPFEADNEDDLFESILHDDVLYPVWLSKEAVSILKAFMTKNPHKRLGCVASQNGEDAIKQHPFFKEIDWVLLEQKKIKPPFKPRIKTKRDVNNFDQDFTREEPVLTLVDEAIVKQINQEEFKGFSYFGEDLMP
Procedure, shortened: as §1

[9] = biological target: T9, kinases of the scanMAX Kinase assay panel (Homo sapiens, UniProt Q13546); conditions: kinase RIPK1; 1 uM in DMSO
T9 construct: purchased DiscoverX Co. (contract measurement) scanMAX Kinase assay panel
T9 sequence (Q13546 1-671): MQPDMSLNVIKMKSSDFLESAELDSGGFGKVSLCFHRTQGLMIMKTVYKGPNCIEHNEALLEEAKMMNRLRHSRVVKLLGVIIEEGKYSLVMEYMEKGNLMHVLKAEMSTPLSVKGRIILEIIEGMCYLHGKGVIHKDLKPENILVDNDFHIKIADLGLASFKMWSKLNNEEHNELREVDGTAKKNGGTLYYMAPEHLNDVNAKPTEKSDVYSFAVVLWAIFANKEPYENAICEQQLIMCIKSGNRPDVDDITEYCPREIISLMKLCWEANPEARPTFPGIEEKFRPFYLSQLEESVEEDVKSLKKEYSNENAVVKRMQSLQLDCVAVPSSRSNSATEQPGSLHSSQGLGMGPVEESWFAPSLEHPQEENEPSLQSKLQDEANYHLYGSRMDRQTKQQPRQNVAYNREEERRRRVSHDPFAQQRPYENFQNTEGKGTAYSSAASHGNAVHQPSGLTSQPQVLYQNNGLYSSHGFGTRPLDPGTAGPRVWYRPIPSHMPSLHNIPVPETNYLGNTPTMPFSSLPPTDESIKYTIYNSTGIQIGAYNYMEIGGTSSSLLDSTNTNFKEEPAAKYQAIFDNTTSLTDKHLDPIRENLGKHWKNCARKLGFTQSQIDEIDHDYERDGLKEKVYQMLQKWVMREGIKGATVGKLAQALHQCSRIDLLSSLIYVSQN
Procedure, shortened: as §1

[10] = biological target: T10, kinases of the scanMAX Kinase assay panel (Homo sapiens, UniProt Q8N4C8); conditions: MINK; 1 uM
T10 construct: purchased DiscoverX Co. (contract measurement) scanMAX Kinase assay panel
Procedure, shortened: as §1

[11] = biological target: T11, kinases of the scanMAX Kinase assay panel (Homo sapiens, UniProt Q9BYP7); conditions: kinase WNK3; 1 uM in DMSO
T11 construct: purchased DiscoverX Co. (contract measurement) scanMAX Kinase assay panel
Procedure, shortened: as §1

[12] = biological target: T12, kinases of the scanMAX Kinase assay panel (Plasmodium falciparum, UniProt P62344); conditions: PFCDPK1(P. falciparum); 1 uM
T12 construct: purchased DiscoverX Co. (contract measurement) scanMAX Kinase assay panel
Procedure, shortened: as §1

T1 sequence (P06239 whole entry): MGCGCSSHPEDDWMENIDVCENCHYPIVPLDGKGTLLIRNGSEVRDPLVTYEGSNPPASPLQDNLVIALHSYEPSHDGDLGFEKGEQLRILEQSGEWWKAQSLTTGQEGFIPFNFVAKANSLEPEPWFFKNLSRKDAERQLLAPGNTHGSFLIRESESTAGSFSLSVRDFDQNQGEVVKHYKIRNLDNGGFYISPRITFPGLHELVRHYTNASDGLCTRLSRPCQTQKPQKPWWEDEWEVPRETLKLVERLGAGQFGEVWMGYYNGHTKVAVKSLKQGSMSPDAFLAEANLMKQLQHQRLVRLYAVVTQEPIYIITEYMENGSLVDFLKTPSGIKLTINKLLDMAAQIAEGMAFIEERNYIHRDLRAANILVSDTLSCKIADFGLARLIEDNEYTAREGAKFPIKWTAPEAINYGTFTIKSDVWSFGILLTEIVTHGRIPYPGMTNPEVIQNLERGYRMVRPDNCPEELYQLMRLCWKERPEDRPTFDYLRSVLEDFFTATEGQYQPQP
T7 sequence (Q00535 whole entry): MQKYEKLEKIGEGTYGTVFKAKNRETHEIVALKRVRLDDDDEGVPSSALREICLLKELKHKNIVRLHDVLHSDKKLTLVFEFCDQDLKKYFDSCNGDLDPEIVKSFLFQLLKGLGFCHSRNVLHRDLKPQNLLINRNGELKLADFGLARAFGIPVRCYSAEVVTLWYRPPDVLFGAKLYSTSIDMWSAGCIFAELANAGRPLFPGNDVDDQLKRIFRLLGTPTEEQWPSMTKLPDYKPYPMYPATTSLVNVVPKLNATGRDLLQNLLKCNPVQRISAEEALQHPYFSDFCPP
T11 sequence (Q9BYP7 whole entry): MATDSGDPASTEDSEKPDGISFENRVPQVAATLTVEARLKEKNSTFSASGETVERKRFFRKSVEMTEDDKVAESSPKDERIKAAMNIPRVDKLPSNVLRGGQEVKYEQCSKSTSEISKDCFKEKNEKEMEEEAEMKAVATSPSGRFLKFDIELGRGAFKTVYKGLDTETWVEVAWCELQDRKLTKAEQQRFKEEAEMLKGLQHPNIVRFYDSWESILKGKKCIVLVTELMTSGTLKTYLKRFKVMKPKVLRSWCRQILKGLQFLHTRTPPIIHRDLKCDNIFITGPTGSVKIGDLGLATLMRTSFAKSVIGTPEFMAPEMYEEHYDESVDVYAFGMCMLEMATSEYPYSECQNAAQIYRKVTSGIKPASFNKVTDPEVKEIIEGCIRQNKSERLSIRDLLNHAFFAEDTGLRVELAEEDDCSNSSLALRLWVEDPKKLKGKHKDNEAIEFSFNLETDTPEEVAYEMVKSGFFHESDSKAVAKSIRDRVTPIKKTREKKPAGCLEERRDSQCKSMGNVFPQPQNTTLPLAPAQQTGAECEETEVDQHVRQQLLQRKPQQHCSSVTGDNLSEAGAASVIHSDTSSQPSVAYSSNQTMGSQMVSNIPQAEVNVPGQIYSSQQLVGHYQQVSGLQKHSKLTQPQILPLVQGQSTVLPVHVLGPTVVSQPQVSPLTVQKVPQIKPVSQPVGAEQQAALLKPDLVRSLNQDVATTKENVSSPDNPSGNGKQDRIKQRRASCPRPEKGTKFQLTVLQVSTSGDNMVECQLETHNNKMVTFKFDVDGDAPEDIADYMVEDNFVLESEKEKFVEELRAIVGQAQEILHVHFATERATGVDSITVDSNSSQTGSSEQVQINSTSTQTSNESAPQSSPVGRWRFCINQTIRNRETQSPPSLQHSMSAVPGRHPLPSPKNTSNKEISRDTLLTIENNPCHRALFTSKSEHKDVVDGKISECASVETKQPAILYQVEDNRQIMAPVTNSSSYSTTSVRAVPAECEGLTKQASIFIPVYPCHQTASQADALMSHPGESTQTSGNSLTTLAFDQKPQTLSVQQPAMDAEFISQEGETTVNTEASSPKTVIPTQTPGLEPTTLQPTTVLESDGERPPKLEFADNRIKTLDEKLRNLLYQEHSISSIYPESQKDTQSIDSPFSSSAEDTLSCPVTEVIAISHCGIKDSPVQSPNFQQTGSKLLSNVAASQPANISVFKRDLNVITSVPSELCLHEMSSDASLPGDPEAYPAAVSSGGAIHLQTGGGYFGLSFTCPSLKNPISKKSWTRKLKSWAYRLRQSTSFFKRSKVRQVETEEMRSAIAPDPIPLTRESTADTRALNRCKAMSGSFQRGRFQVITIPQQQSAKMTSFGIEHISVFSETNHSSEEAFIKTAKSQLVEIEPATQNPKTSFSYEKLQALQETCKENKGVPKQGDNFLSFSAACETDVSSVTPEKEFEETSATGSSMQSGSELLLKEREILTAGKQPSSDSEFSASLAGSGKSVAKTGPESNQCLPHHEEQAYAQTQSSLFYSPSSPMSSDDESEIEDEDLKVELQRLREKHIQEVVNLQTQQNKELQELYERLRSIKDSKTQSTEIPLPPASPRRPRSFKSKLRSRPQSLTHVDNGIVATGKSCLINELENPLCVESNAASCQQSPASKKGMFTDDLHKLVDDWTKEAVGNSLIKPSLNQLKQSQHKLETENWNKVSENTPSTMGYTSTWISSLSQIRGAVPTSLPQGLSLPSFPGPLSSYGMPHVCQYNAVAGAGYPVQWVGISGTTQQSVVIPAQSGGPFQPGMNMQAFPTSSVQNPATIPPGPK
T5 sequence (P53350 whole entry): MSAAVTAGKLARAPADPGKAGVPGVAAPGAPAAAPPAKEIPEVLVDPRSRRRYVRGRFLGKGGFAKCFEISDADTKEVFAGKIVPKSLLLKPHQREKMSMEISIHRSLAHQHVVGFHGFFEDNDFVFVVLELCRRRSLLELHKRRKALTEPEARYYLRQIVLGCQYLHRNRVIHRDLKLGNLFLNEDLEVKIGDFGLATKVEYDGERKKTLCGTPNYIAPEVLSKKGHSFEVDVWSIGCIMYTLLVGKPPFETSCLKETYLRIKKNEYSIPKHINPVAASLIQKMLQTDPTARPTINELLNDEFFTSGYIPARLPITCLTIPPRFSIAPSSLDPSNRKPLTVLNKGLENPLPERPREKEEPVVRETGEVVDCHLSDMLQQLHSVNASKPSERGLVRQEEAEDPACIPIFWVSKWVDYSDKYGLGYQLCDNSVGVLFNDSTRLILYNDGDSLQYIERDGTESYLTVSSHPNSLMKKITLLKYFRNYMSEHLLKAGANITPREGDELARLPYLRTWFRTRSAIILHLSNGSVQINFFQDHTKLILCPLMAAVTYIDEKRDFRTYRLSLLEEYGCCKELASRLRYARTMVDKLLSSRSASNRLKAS
T2 sequence (P09619 33-1106): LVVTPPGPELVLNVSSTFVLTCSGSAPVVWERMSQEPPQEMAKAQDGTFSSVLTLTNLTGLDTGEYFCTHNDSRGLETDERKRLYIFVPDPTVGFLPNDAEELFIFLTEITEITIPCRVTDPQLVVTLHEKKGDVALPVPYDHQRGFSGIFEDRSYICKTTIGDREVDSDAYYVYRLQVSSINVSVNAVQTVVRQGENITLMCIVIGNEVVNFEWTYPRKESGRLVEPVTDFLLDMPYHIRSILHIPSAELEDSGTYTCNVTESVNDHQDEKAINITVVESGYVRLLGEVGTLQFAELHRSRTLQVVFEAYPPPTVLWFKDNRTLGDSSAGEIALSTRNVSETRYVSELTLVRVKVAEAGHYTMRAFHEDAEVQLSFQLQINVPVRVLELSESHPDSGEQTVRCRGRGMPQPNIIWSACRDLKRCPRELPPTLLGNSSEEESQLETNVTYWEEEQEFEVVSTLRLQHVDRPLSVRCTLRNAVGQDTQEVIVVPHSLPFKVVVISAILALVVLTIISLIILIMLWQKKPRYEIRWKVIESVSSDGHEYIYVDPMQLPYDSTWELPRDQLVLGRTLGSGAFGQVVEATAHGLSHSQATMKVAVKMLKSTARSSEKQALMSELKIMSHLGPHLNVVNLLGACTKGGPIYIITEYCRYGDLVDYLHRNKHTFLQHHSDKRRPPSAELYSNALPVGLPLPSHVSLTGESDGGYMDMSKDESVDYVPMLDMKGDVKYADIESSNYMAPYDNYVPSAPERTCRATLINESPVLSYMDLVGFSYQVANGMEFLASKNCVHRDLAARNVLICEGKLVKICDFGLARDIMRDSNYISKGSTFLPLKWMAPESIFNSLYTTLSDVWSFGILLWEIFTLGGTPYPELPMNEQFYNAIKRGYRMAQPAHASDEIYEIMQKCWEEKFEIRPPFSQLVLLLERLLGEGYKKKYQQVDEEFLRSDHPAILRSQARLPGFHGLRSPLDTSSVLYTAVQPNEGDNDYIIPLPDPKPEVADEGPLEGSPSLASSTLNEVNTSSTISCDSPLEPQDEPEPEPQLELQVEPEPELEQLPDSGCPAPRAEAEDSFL
T6 sequence (P53779 whole entry): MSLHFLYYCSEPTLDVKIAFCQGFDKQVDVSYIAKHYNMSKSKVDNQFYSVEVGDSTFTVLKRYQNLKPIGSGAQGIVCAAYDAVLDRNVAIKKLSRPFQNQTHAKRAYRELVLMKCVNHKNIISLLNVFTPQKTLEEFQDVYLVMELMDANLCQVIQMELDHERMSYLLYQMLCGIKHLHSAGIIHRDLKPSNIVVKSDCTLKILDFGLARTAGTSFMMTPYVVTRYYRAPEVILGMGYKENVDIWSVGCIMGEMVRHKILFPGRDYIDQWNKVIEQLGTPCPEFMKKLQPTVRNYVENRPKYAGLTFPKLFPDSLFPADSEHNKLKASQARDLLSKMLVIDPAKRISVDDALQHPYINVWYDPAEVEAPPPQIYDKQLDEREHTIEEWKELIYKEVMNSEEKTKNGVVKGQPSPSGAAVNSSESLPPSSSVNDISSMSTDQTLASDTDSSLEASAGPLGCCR

| SMILES | remaining binding at 1 µM [1] [%] | remaining binding at 1 µM [2] [%] | remaining binding at 1 µM [3] [%] | remaining binding at 1 µM [4] [%] | remaining binding at 1 µM [5] [%] | remaining binding at 1 µM [6] [%] | remaining binding at 1 µM [7] [%] | remaining binding at 1 µM [8] [%] | remaining binding at 1 µM [9] [%] | remaining binding at 1 µM [10] [%] | remaining binding at 1 µM [11] [%] | remaining binding at 1 µM [12] [%] |
| --- | --- | --- | --- | --- | --- | --- | --- | --- | --- | --- | --- | --- |
| CC1(Nc2nc(Nc3cnn([C@H]4CCN(C5COC5)C[C@@H]4F)c3Cl)nc3[nH]cc(C#N)c23)CC1 [Example 52, 2-((5-chloro-1-((3S,4S)-3-fluoro-1-(oxetane-3-yl)piperidine-4-yl)-1H-pyrazole-4-yl)amino)((1-methylcyclopropyl)amino)-7H-pyrrolo[2,3-d]pyrimidine-5-carbonitrile] | 19 | 0.35 | 84 | 19 | 100 | 0 | 63 | 100 | 14 | 6.4 | 55 | 52 |
| CNc1nc(Nc2ccc(C(=O)N3CCOCC3)cc2OC)nc2[nH]cc(C#N)c12 [Example 1, 2-((2-methoxy-4-(morpholine-4-carbonyl)phenyl)amino)-4-(methylamino)-7H-pyrrolo[2,3-d]pyrimidine-5-carbonitrile] | 100 | 84 | 96 | 43 | 14 | 0 | 96 | 100 | 94 | 50 | 68 | 87 |
| CCNc1nc(Nc2ccc(C(=O)N3CCC(N4CCOCC4)CC3)cc2OC)nc2[nH]cc(C(F)(F)F)c12 [Example 104, (4-((4-(ethylamino)-5-(trifluoromethyl)-7H-pyrrolo[2,3-d]pyrimidine-2-yl)amino)-3-methoxyphenyl)(4-morpholinopiperidine-1-yl)methanone] | 100 | 60 | 100 | 92 | 65 | 18 | 100 | 100 | 100 | 91 | 100 | 100 |
